Data: patent US11078216B2, “Bisaryl amides as NRF2 activators” (GLAXOSMITHKLINE INTELLECTUAL PROPERTY DEVELOPMENT LIMITED, priority 2016, dated 2021)
Where a name gives a salt, the structure may show the parent alone. Read-outs that look alike come from different tables or passages of the source.

System: NRF2 (NQO1 activity as marker for NRF2 activation), BEAS-2B cells
Assay: BEAS-2B NQO1 MTT Assay
Format: cell-based
Conditions: Homo sapiens
Text: NAD(P)H:quinone oxidoreductase 1 (NQO1), also called DT diaphorase, is a homodimeric FAD-containing enzyme that catalyzes obligatory NAD(P)H-dependent two-electron reductions of quinones and protects cells against the toxic and neoplastic effects of free radicals and reactive oxygen species arising from one-electron reductions. The transcription of NQO1 is finely regulated by NRF2, and thus NQO1 activity is a good marker for NRF2 activation. On day one, frozen BEAS-2B cells (ATCC) are thawed in a water bath, counted, and re-suspended at a concentration of 250,000 cells/mL. Fifty microliters of cells are plated in 384 well black clear-bottomed plates. Plates are incubated at 37° C., 5% CO2 overnight. On day two, plates are centrifuged and 50 nL of compound or controls are added to the cells. Plates are then incubated at 37° C., 5% CO2 for 48 hours. On day four, medium is aspirated from the plate and crude cell lysates are made by adding 13 uL of 1× Cell Signaling Technologies lysis buffer with 1 Complete, Mini, EDTA-free Protease Inhibitor Tablet (Roche) for each 10 mL of lysis buffer. After lysis plates are incubated for 20 minutes at room temperature. Two microliters of lysate are removed for use in Cell Titer Glo assay (Promega) and MTT cocktail is prepared (Prochaska et. al. 1998) for measurement of NQO1 activity. Fifty microliters of MTT cocktail is added to each well, plate is centrifuged, and analyzed on an Envision plate reader (Perkin Elmer) using Absorbance 570 nm label for 30 minutes. Product formation is measured kinetically and the EC50 of NQO1 specific activity induction is calculated by plotting the change in absorbance (Delta OD/min) versus the log of compound concentration followed by 3-parameter fitting.
EC50s<1 nM (+++++), EC50s 1 nM-10 nM (++++), EC50s 10 nM-100 nM (+++), EC50s 100 nM-1 uM (++), EC50s 1-10 uM (+), EC50s>10 uM (−), or were not determined (ND).

[1] = EC50 of NQO1 specific activity induction, 48 hours incubation, read-out: EC50

CC[C@@H]1CN(Cc2cc([C@H](CC(=O)NC3CC3)c3ccc4c(nnn4CC)c3C)ccc2C)S(=O)(=O)c2cccnc2O1 [Example 31, (S)—N-Cyclopropyl-3-(3-(((R)-4-ethyl-1,1-dioxido-3,4-dihydro-2H-pyrido[2,3-b][1,4,5]oxathiazepin-2-yl)methyl)-4-methylphenyl)-3-(1-ethyl-4-methyl-1H-benzo[d][1,2,3]triazol-5-yl)propanamide]
EC50 [1]: 100 to 1000 nM

CC[C@@H]1CN(Cc2cc([C@H](CC(=O)NCCO)c3ccc4c(nnn4CC)c3C)ccc2C)S(=O)(=O)c2cccnc2O1 [Example 32, (S)-3-(3-(((R)-4-Ethyl-1,1-dioxido-3,4-dihydro-2H-pyrido[2,3-b][1,4,5]oxathiazepin-2-yl)methyl)-4-methylphenyl)-3-(1-ethyl-4-methyl-1H-benzo[d][1,2,3]triazol-5-yl)-N-(2-hydroxyethyl)propanamide]
EC50 [1]: 1000 to 10000 nM

CC[C@@H]1CN(Cc2cc([C@H](CC(=O)NCCCO)c3ccc4c(nnn4CC)c3C)ccc2C)S(=O)(=O)c2cccnc2O1 [Example 33, (S)-3-(3-(((R)-4-Ethyl-1,1-dioxido-3,4-dihydro-2H-pyrido[2,3-b][1,4,5]oxathiazepin-2-yl)methyl)-4-methylphenyl)-3-(1-ethyl-4-methyl-1H-benzo[d][1,2,3]triazol-5-yl)-N-(3-hydroxypropyl)-propanamide]
EC50 [1]: 1000 to 10000 nM

CC[C@@H]1CN(Cc2cc([C@H](CC(=O)NCCCOC)c3ccc4c(nnn4CC)c3C)ccc2C)S(=O)(=O)c2cccnc2O1 [Example 34, (S)-3-(3-(((R)-4-Ethyl-1,1-dioxido-3,4-dihydro-2H-pyrido[2,3-b][1,4,5]oxathiazepin-2-yl)methyl)-4-methylphenyl)-3-(1-ethyl-4-methyl-1H-benzo[d][1,2,3]triazol-5-yl)-N-(3-methoxypropyl)-propanamide]
EC50 [1]: 1000 to 10000 nM

CC[C@@H]1CN(Cc2cc([C@H](CC(=O)NCC(N)=O)c3ccc4c(nnn4CC)c3C)ccc2C)S(=O)(=O)c2cccnc2O1 [Example 35, (S)—N-(2-Amino-2-oxoethyl)-3-(3-(((R)-4-ethyl-1,1-dioxido-3,4-dihydro-2H-pyrido[2,3-b][1,4,5]oxathiazepin-2-yl)methyl)-4-methylphenyl)-3-(1-ethyl-4-methyl-1H-benzo[d][1,2,3]triazol-5-yl)propanamide]
EC50 [1]: 1000 to 10000 nM

CC[C@@H]1CN(Cc2cc([C@H](CC(=O)NCCNC)c3ccc4c(nnn4CC)c3C)ccc2C)S(=O)(=O)c2cccnc2O1 [Example 36, (S)-3-(3-(((R)-4-Ethyl-1,1-dioxido-3,4-dihydro-2H-pyrido[2,3-b][1,4,5]oxathiazepin-2-yl)methyl)-4-methylphenyl)-3-(1-ethyl-4-methyl-1H-benzo[d]-[1,2,3]triazol-5-yl)-N-(2-(methylamino)ethyl)propanamide]
EC50 [1]: 100 to 1000 nM

CC[C@@H]1CN(Cc2cc([C@H](CC(=O)NCC3CCCO3)c3ccc4c(nnn4CC)c3C)ccc2C)S(=O)(=O)c2cccnc2O1 (stereo partly drawn) [Example 37, (3S)-3-(3-(((R)-4-Ethyl-1,1-dioxido-3,4-dihydro-2H-pyrido[2,3-b][1,4,5]oxathiazepin-2-yl)methyl)-4-methylphenyl)-3-(1-ethyl-4-methyl-1H-benzo[d][1,2,3]triazol-5-yl)-N-((tetrahydrofuran-2-yl)methyl)propanamide]
EC50 [1]: 100 to 1000 nM

CC[C@@H]1CN(Cc2cc([C@H](CC(=O)NCCF)c3ccc4c(nnn4CC)c3C)ccc2C)S(=O)(=O)c2cccnc2O1 [Example 38, (S)-3-(3-(((R)-4-Ethyl-1,1-dioxido-3,4-dihydro-2H-pyrido[2,3-b][1,4,5]oxathiazepin-2-yl)methyl)-4-methylphenyl)-3-(1-ethyl-4-methyl-1H-benzo[d][1,2,3]triazol-5-yl)-N-(2-fluoroethyl)propanamide]
EC50 [1]: 100 to 1000 nM

CC[C@@H]1CN(Cc2cc([C@H](CC(=O)NCC(=O)NC)c3ccc4c(nnn4CC)c3C)ccc2C)S(=O)(=O)c2cccnc2O1 [Example 39, (S)-3-(3-(((R)-4-Ethyl-1,1-dioxido-3,4-dihydro-2H-pyrido[2,3-b][1,4,5]oxathiazepin-2-yl)methyl)-4-methylphenyl)-3-(1-ethyl-4-methyl-1H-benzo[d][1,2,3]triazol-5-yl)-N-(2-(methylamino)-2-oxoethyl)propanamide]
EC50 [1]: 1000 to 10000 nM

CCOCCNC(=O)C[C@@H](c1ccc(C)c(CN2C[C@@H](CC)Oc3ncccc3S2(=O)=O)c1)c1ccc2c(nnn2CC)c1C [Example 40, (S)-N-(2-Ethoxyethyl)-3-(3-(((R)-4-ethyl-1,1-dioxido-3,4-dihydro-2H-pyrido[2,3-b][1,4,5]oxathiazepin-2-yl)methyl)-4-methylphenyl)-3-(1-ethyl-4-methyl-1H-benzo[d][1,2,3]triazol-5-yl)propanamide]
EC50 [1]: 100 to 1000 nM

CC[C@@H]1CN(Cc2cc([C@H](CC(=O)NCCOC)c3ccc4c(nnn4CC)c3C)ccc2C)S(=O)(=O)c2cccnc2O1 [Example 41, (S)-3-(3-(((R)-4-Ethyl-1,1-dioxido-3,4-dihydro-2H-pyrido[2,3-b][1,4,5]oxathiazepin-2-yl)methyl)-4-methylphenyl)-3-(1-ethyl-4-methyl-1H-benzo[d][1,2,3]triazol-5-yl)-N-(2-methoxyethyl)propanamide]
EC50 [1]: 100 to 1000 nM

CC[C@@H]1CN(Cc2cc([C@H](CC(=O)NCC(=O)NC(C)C)c3ccc4c(nnn4CC)c3C)ccc2C)S(=O)(=O)c2cccnc2O1 [Example 42, (S)-3-(3-(((R)-4-Ethyl-1,1-dioxido-3,4-dihydro-2H-pyrido[2,3-b][1,4,5]oxathiazepin-2-yl)methyl)-4-methylphenyl)-3-(1-ethyl-4-methyl-1H-benzo[d][1,2,3]triazol-5-yl)-N-(2-(isopropylamino)-2-oxoethyl)propanamide]
EC50 [1]: 1000 to 10000 nM

CC[C@@H]1CN(Cc2cc([C@H](CC(=O)NC(C)C(N)=O)c3ccc4c(nnn4CC)c3C)ccc2C)S(=O)(=O)c2cccnc2O1 (stereo partly drawn) [Example 43, (3S)—N-(1-Amino-1-oxopropan-2-yl)-3-(3-(((R)-4-ethyl-1,1-dioxido-3,4-dihydro-2H-pyrido[2,3-b][1,4,5]oxathiazepin-2-yl)methyl)-4-methylphenyl)-3-(1-ethyl-4-methyl-1H-benzo[d][1,2,3]triazol-5-yl)propanamide]
EC50 [1]: 100 to 1000 nM

CC[C@@H]1CN(Cc2cc([C@H](CC(=O)NCCCC#N)c3ccc4c(nnn4CC)c3C)ccc2C)S(=O)(=O)c2cccnc2O1 [Example 44, (S)-N-(3-Cyanopropyl)-3-(3-(((R)-4-ethyl-1,1-dioxido-3,4-dihydro-2H-pyrido[2,3-b][1,4,5]oxathiazepin-2-yl)methyl)-4-methylphenyl)-3-(1-ethyl-4-methyl-1H-benzo[d][1,2,3]triazol-5-yl)propanamide]
EC50 [1]: 100 to 1000 nM

CC[C@@H]1CN(Cc2cc([C@H](CC(=O)NCCNC(C)=O)c3ccc4c(nnn4CC)c3C)ccc2C)S(=O)(=O)c2cccnc2O1 [Example 45, (S)—N-(2-Acetamidoethyl)-3-(3-(((R)-4-ethyl-1,1-dioxido-3,4-dihydro-2H-pyrido[2,3-b][1,4,5]oxathiazepin-2-yl)methyl)-4-methylphenyl)-3-(1-ethyl-4-methyl-1H-benzo[d][1,2,3]triazol-5-yl)propanamide]
EC50 [1]: 100 to 1000 nM
EC50 (in some determinations, read-out: EC50 values in some determinations): < 0.17 nM

CC[C@@H]1CN(Cc2cc([C@@H](CC(=O)Nc3cccnc3)c3ccc4c(nnn4C)c3C)ccc2C)Cc2ncccc2O1 [Example 46, (R)-3-(1,4-Dimethyl-1H-benzo[d][1,2,3]triazol-5-yl)-3-(3-(((R)-2-ethyl-2,3-dihydropyrido[2,3-f][1,4]oxazepin-4(5H)-yl)methyl)-4-methylphenyl)-N-(pyridin-3-yl)propanamide, Formic Acid Salt]
EC50 [1]: 1000 to 10000 nM

CC[C@@H]1CN(Cc2cc([C@H](CC(=O)Nc3cccnc3)c3ccc4c(nnn4C)c3C)ccc2C)Cc2ncccc2O1 [Example 47, (S)-3-(1,4-Dimethyl-1H-benzo[d][1,2,3]triazol-5-yl)-3-(3-(((R)-2-ethyl-2,3-dihydropyrido[2,3-f][1,4]oxazepin-4(5H)-yl)methyl)-4-methylphenyl)-N-(pyridin-3-yl)propanamide, Formic Acid Salt]
EC50 [1]: 100 to 1000 nM

CCn1cc(CO[C@H](c2ccc(C)c(CN3C[C@@H](C)Cc4ccncc4S3(=O)=O)c2)C(C)(C)C(=O)Nc2cccnc2)nn1 [Example 48, (R)-3-((1-Ethyl-1H-1,2,3-triazol-4-yl)methoxy)-2,2-dimethyl-3-(4-methyl-3-(((S)-4-methyl-1,1-dioxido-4,5-dihydropyrido[4,3-f][1,2]thiazepin-2(3H)-yl)methyl)phenyl)-N-(pyridin-3-yl)propanamide, Formic Acid Salt]
EC50 [1]: 100 to 1000 nM
